Data on 20 molecules can be found in US9845330B2, “6-nitro-2,3-dihydroimidazo[2,1-b]oxazoles and a process for the preparation thereof” (priority 2013, dated 2017).

Values after ≈ are worked out from the molar mass of the structure shown. Where two headings read alike, the source gives them in different places. Some results are limits rather than exact numbers.

Type in all cases: cell-based
Data set [1] in a line: Cytotoxicity assay (MTT) in macrophage J774 cells. The note with it: mouse, J774 macrophage cells; also called safety index. The procedure: (§1) The study was carried out using macrophage J774 cells line (ATCC-USA). Cells were grown in Rosewell Park Memorial Institute Medium (RPMI) containing 10% fetal calf serum (FCS) and supplemented with 75 mg/liter penicillin, 100 mg/liter streptomycin, 110 mg/liter Sodium pyruvate, 2.38 gm/liter HEPES, 0.05 mM 2 β-mercaptoethanol, and 2 gm/liter NaHCO3, in a humidified atmosphere in 5% CO2 at 37° C., and were sub-cultured at 1:4 ratio once a week.
(§2) Cells were plated at a density of 3×10^4 cells/cm^2 and maintained in culture medium for 12 hours. Cells were seeded onto 96-well flat bottom plates and FCS was reduced to 5% for the experiment. Stock solutions of compounds IA1 to IIC10 were prepared fresh to avoid oxidation. Cells were incubated with the compounds (40 μg/ml) for 24 hrs.
(§3) After the completion of incubation, the medium was removed and cell viability was evaluated by assaying for the ability of functional mitochondria to catalyze the reduction of 3-(4,5-dimethylthiazol-2-yl)-2,5-diphenyltetrazolium bromide (MTT) to form formazan salt by mitochondrial dehydrogenases, and determined by Elisa reader at 450 nm (Multiskan Spectrum; Thermo Electron Corporation, USA). Percentage cytotoxicity was calculated with respect to the untreated cells.

The test system of data set [2] is macrophage J774 cells line. The data set is described as follows: Cytotoxicity assay (MTT) in macrophage J774 cells. To be noted: J774 cells, 24 hrs, MTT. Here is the method: as §1, §2, §3
Data set [3] has as its system M. tuberculosis H37Rv (ATCC 27294). As to the kind of experiment: MIC by broth dilution method, M. tuberculosis H37Rv. The note with it: Mycobacterium tuberculosis, 504 h.
Setting [4] is: broth dilution, 3 weeks, read-out: MIC M. tb H37Rv.
The mark [5] stands for this setting: text summary: sensitive H37Rv as well as MDR and XDR strains of M. tuberculosis, read-out: MIC value.

With `C[C@]1(COc2ccc(-n3cc(-c4ccccc4)nn3)cc2)Cn2cc([N+](=O)[O-])nc2O1` [IA1], in data set [1], the selectivity ratio at 24 h, 40 μg/ml was over 10. In addition, the Cytotoxicity in data set [2] was over 40 µg/mL. Besides, the minimal inhibitory concentration (MIC) in data set [3] (setting [4]) worked out at 4 µg/mL (≈ 9.56 µM).

Take `Cc1ccc(Oc2nnnn2-c2ccc(OC[C@@]3(C)Cn4cc([N+](=O)[O-])nc4O3)cc2)cc1` [IB9, (R)-2-{4-[5-(4-methylphenoxy)-1H-tetrazol-1-yl]phenoxymethyl}-2,3-dihydro-2-methyl-6-nitroimidazo[2,1-b]oxazole]: the Cytotoxicity in data set [2] was over 40 µg/mL. Also, the MIC is 4 µg/mL (≈ 8.9 µM) in data set [3] (setting [4]) and 1 to 4 µg/mL (≈ 2.23 to 8.9 µM) in data set [3] (setting [5]).

`C[C@]1(COc2ccc(-n3nnnc3Oc3ccc(OC(F)(F)F)cc3)cc2)Cn2cc([N+](=O)[O-])nc2O1` [IB10, (R)-2-{4-[5-(4-trifluoromethoxyphenoxy)-1H-tetrazol-1-yl]phenoxymethyl}-2,3-dihydro-2-methyl-6-nitroimidazo[2,1-b]oxazole]: the Cytotoxicity in data set [2] was over 40 µg/mL. For the same molecule, the minimum inhibitory concentration (MIC) in data set [3] (setting [4]) is 1 µg/mL (≈ 1.93 µM); in data set [3] (setting [5]), 1 to 4 µg/mL (≈ 1.93 to 7.7 µM).

On to `C[C@]1(COc2ccc(-c3cc(-c4cccc(F)c4)on3)cc2)Cn2cc([N+](=O)[O-])nc2O1` [IC8, (R)-2-{4-[5-(3-fluorophenyl)isoxazol-3-yl]phenoxymethyl}-2,3-dihydro-2-methyl-6-nitroimidazo[2,1-b]oxazole], for which the Cytotoxicity in data set [2] is over 40 µg/mL. For the same molecule, the minimum inhibitory concentration (MIC) in data set [3] (setting [4]) is 2 µg/mL (≈ 4.58 µM).

In data set [2], `C[C@]1(COc2ccc(-c3cc(-c4ccccn4)on3)cc2)Cn2cc([N+](=O)[O-])nc2O1` [IC9, (R)-2-{4-[5-(pyridin-2-yl)isoxazol-3-yl]phenoxymethyl}-2,3-dihydro-2-methyl-6-nitroimidazo[2,1-b]oxazole] yielded a Cytotoxicity of over 40 µg/mL. Also, in data set [3] (setting [4]), the MIC was found to be 2 µg/mL (≈ 4.77 µM).

In turn, `CCc1ccc(OCc2cc(-c3ccc(OC[C@@]4(C)Cn5cc([N+](=O)[O-])nc5O4)cc3)no2)cc1` [IC19, (R)-2-{4-[5-(4-ethylphenoxymethyl)isoxazol-3-yl]phenoxymethyl}-2,3-dihydro-2-methyl-6-nitroimidazo[2,1-b]oxazole] displayed a Cytotoxicity in data set [2] of over 40 µg/mL. Moreover, in data set [3] (setting [4]), the MIC turned out to be 2 µg/mL (≈ 4.2 µM).

On to `CCC(C)c1ccc(OCc2cc(-c3ccc(OC[C@@]4(C)Cn5cc([N+](=O)[O-])nc5O4)cc3)no2)cc1` (stereo partly drawn) [IC20, (R)-2-{4-[5-(4-sec-butylphenoxymethyl)isoxazol-3-yl]phenoxymethyl}-2,3-dihydro-2-methyl-6-nitroimidazo[2,1-b]oxazole], for which the Cytotoxicity in data set [2] was over 40 µg/mL. In data set [3] (setting [4]), the MIC turned out to be 2 µg/mL (≈ 3.96 µM).

With `C[C@]1(COc2ccc(-c3cc(COc4ccccc4)on3)cc2)Cn2cc([N+](=O)[O-])nc2O1` [IC21, (R)-2-{4-[5-(phenoxymethyl)isoxazol-3-yl]phenoxymethyl}-2,3-dihydro-2-methyl-6-nitroimidazo[2,1-b]oxazole], the Cytotoxicity in data set [2] is over 40 µg/mL. Besides, in data set [3] (setting [4]), the minimal inhibitory concentration (MIC) amounted to 4 µg/mL (≈ 8.92 µM).

With `COc1ccc(NC(=S)Nc2ccc(OC[C@@]3(C)Cn4cc([N+](=O)[O-])nc4O3)cc2)cc1` [IIA7, (R)-1-(4-methoxyphenyl)-3-{4-(2-methyl-6-nitro-2,3-dihydroimidazo[2,1-b]oxazol-2-yl)methoxyphenyl}thiourea], the Cytotoxicity in data set [2] is over 40 µg/mL. The minimum inhibitory concentration (MIC) in data set [3] (setting [4]) amounted to 2 µg/mL (≈ 4.39 µM).

The molecule `C[C@]1(COc2ccc(NC(=S)Nc3ccc(OC(F)(F)F)cc3)cc2)Cn2cc([N+](=O)[O-])nc2O1` [IIA8, (R)-1-(4-trifluoromethoxyphenyl)-3-{4-(2-methyl-6-nitro-2,3-dihydroimidazo[2,1-b]oxazol-2-yl)methoxyphenyl}thiourea] returned a Cytotoxicity in data set [2] of over 40 µg/mL. In data set [3] (setting [4]), the MIC is 2 µg/mL (≈ 3.93 µM).

With `C[C@]1(COc2ccc(NC(=S)Nc3ccc(F)cc3)cc2)Cn2cc([N+](=O)[O-])nc2O1` [IIA9, (R)-1-(4-fluorophenyl)-3-{4-(2-methyl-6-nitro-2,3-dihydroimidazo[2,1-b]oxazol-2-yl)methoxyphenyl}thiourea], in data set [2], the Cytotoxicity was over 40 µg/mL. Also, the MIC in data set [3] (setting [4]) was determined as 4 µg/mL (≈ 9.02 µM).

As to `C[C@]1(COc2ccc(NC(=S)Nc3ccc(C(F)(F)F)cc3)cc2)Cn2cc([N+](=O)[O-])nc2O1` [IIA10, (R)-1-(4-trifluoromethylphenyl)-3-{4-(2-methyl-6-nitro-2,3-dihydroimidazo[2,1-b]oxazol-2-yl)methoxyphenyl}thiourea], the Cytotoxicity in data set [2] was over 40 µg/mL. Moreover, the MIC in data set [3] (setting [4]) is 4 µg/mL (≈ 8.11 µM).

Turning to `Cc1ccc(NS(=O)(=O)c2ccc(OC[C@@]3(C)Cn4cc([N+](=O)[O-])nc4O3)cc2)cc1` [IIB1, (R)-4-{(2-methyl-6-nitro-2,3-dihydroimidazo[2,1-b]oxazol-2-yl)methoxy}-N-(p-tolyl)benzenesulfonamide], the Cytotoxicity in data set [2] was over 40 µg/mL. Moreover, the MIC in data set [3] (setting [4]) amounted to 2 µg/mL (≈ 4.5 µM).

As for `C[C@]1(COc2ccc(S(=O)(=O)Nc3ccc(OC(F)(F)F)cc3)cc2)Cn2cc([N+](=O)[O-])nc2O1` [IIB2, (R)-4-{(2-methyl-6-nitro-2,3-dihydroimidazo[2,1-b]oxazol-2-yl)methoxy}-N-(4 trifluoromethoxyphenyl)benzenesulfonamide], the Cytotoxicity in data set [2] was over 40 µg/mL. The MIC in data set [3] (setting [4]) came to 2 µg/mL (≈ 3.89 µM).

On to `C[C@]1(COc2ccc(S(=O)(=O)Nc3ccc(C(F)(F)F)cc3)cc2)Cn2cc([N+](=O)[O-])nc2O1` [IIB3, (R)-4-{(2-methyl-6-nitro-2,3-dihydroimidazo[2,1-b]oxazol-2-yl)methoxy}-N-(4 trifluoromethylphenyl)benzenesulfonamide], for which the Cytotoxicity in data set [2] was over 40 µg/mL. The MIC in data set [3] (setting [4]) was found to be 2 µg/mL (≈ 4.01 µM).

`CN(c1ccccc1)S(=O)(=O)c1ccc(OC[C@@]2(C)Cn3cc([N+](=O)[O-])nc3O2)cc1` [IIB4, (R)—N-methyl-4-{(2-methyl-6-nitro-2,3-dihydroimidazo[2,1-b]oxazol-2-yl)methoxy}-N-phenylbenzenesulfonamide] had a Cytotoxicity in data set [2] of over 40 µg/mL. For the same molecule, the MIC in data set [3] (setting [4]) was 4 µg/mL (≈ 9 µM).

As for `Cc1ccc(N(C)S(=O)(=O)c2ccc(OC[C@@]3(C)Cn4cc([N+](=O)[O-])nc4O3)cc2)cc1` [IIB5, (R)—N-methyl-4-{(2-methyl-6-nitro-2,3-dihydroimidazo[2,1-b]oxazol-2-yl)methoxy}-N-(p-tolyl)benzenesulfonamide], the Cytotoxicity in data set [2] is over 40 µg/mL. For the same molecule, the MIC in data set [3] (setting [4]) was 4 µg/mL (≈ 8.72 µM).

Take `CN(c1ccc(C(F)(F)F)cc1)S(=O)(=O)c1ccc(OC[C@@]2(C)Cn3cc([N+](=O)[O-])nc3O2)cc1` [IIB6, (R)—N-methyl-4-{(2-methyl-6-nitro-2,3-dihydroimidazo[2,1-b]oxazol-2-yl)methoxy}-N-(p-trifluoromethylphenyl)benzenesulfonamide]: the Cytotoxicity in data set [2] was over 40 µg/mL. The MIC in data set [3] (setting [4]) is 1 µg/mL (≈ 1.95 µM).

In turn, `C[C@]1(COc2ccc(S(=O)(=O)N3CCN(c4ccccc4)CC3)cc2)Cn2cc([N+](=O)[O-])nc2O1` [IIC1, (R)-2-{4-(4-phenylpiperazin-1-yl)sulfonylphenoxymethyl}-2,3-dihydro-2-methyl-6-nitroimidazo[2,1-b]oxazole] came in with a Cytotoxicity in data set [2] of over 40 µg/mL. Also, the MIC in data set [3] (setting [4]) worked out at 1 µg/mL (≈ 2 µM).

In data set [2], `C[C@]1(COc2ccc(S(=O)(=O)N3CCN(c4ccc(F)cc4)CC3)cc2)Cn2cc([N+](=O)[O-])nc2O1` [IIC2, (R)-2-{4-[4-(4-fluorophenyl)piperazin-1-yl]sulfonylphenoxymethyl}-2,3-dihydro-2-methyl-6-nitroimidazo[2,1-b]oxazole] showed a Cytotoxicity of over 40 µg/mL. The MIC in data set [3] (setting [4]) stood at 2 µg/mL (≈ 3.86 µM).
